This passage reports IC50 results from ChEMBL document CHEMBL4330139, “Synthetically modified methoxsalen for enhanced cytotoxicity in light and dark reactions” (Bioorg Med Chem Lett, 2019).

Some results are limits rather than exact numbers.

Data set [1] relates to PAM212. In words: Phototoxicity against mouse PAM212 cells assessed as cell growth inhibition preincubated for 30 mins followed by 1.28 J/cm2 UV light exposure and measured after 5 days by coulter counting method. To be noted: PAM212, light or radiation study. Type of data set: functional, cell-based.
A short description of data set [2]: Dark toxicity against mouse PAM212 cells assessed as cell growth inhibition incubated for 5 days under dark condition by coulter counting method. Type of data set: cell-based.
Data set [3] is described as follows: Dark toxicity against mouse PAM212 cells assessed as cell growth inhibition incubated for 30 mins under dark condition measured after 5 days by coulter counting method. It counts as cell-based.

Take `CCCCN(C)/N=N/c1c2ccoc2c(OC)c2oc(=O)ccc12`: the IC50 in data set [1] is 4 µM. Besides, in data set [2], the IC50 at 5 days was 7 µM. Moreover, in data set [3], the IC50 at 30 min was > 100 µM.

For `COc1c2occc2c(/N=N/N(C)C)c2ccc(=O)oc12`, in data set [1], the IC50 is > 100 µM. For the same molecule, in data set [2], the half-maximal inhibitory concentration (IC50) at 5 days amounted to 20 µM. For the same molecule, in data set [3], the IC50 at 30 min was > 100 µM.

In the case of `CCN(CC)/N=N/c1c2ccoc2c(OC)c2oc(=O)ccc12`, the IC50 in data set [1] is > 100 µM. The IC50 at 5 days in data set [2] was 6 µM. In addition, the IC50 at 30 min in data set [3] was > 100 µM.

As to `CCN(C)/N=N/c1c2ccoc2c(OC)c2oc(=O)ccc12`, the IC50 in data set [1] is > 70 µM. Also, in data set [2], the IC50 at 5 days stood at 10 µM. Also, the IC50 at 30 min in data set [3] was > 100 µM.

With `COc1c2occc2c(NC(=O)NCCCl)c2ccc(=O)oc12`, the half-inhibitory concentration (IC50) in data set [1] is > 100 µM. Further, the IC50 at 5 days in data set [2] is > 300 µM. Besides, the IC50 at 30 min in data set [3] is > 100 µM.

With `COc1c2occc2c(NC(=O)CCl)c2ccc(=O)oc12`, the IC50 in data set [1] was found to be 40 µM. Moreover, in data set [2], the IC50 at 5 days was determined as 4 µM. The IC50 at 30 min in data set [3] is 50 µM.

In the case of `COc1c2occc2cc2ccc(=O)oc12` [METHOXSALEN], in data set [1], the IC50 came out at 0.1 µM. Further, the IC50 at 5 days in data set [2] is > 100 µM. Moreover, the IC50 at 30 min in data set [3] was > 100 µM.

In the case of `COc1c2occc2c(NC(=O)c2ccc(N=[N+]=[N-])cc2)c2ccc(=O)oc12`, the IC50 in data set [1] worked out at 33 µM. In data set [2], the IC50 at 5 days is > 300 µM. Also, the IC50 at 30 min in data set [3] is > 100 µM.

For orientation: IC50 means the concentration at which inhibition is half-maximal.
